What was measured:
[1] = Mathijssen R H et al., Clin Cancer Res, 2001; cited from earlier work
[2] = system: colic adenocarcinoma HT29 cells; experiment: Cytotoxicity test in vitro on HT29 cells, MTT colorimetric assay; assay type: cell-based; details: 48 hours of contact, HA derivatives in 5% glucosated solution, SN38 in DMSO
Description: Evaluation of the Antiproliferative Activity of the Ester Conjugate HA/SN38 having a Substitution Degree Equal to 10% and 15%, on the Cellular Line of Colic Adenocarcinoma HT29
Aliquots of the derivatives obtained from examples 1 and 2 are characterized by means of a cytotoxicity test in vitro on a line of colic tumoral cells called HT29. The comparison was effected with SN38 dissolved in DMSO. The HA derivatives are solubilized in a glucosated solution at 5% at a concentration of 5 mg/ml. The test is effected by depositing on a plate with 96 cavities, 3000 cells per cavity; after 24 hours of incubation at 37° C., the cells are put in contact with the solutions and after a further 48 hours the cell vitality is determined by means of a MTT colorimetric assay (Dezinot F. et al., J. Immunol Methods, 1986, 22(89):271-277).
The proliferation curves referring to the two ester conjugates of HA are shown in the graphs (on the left the cytotoxic activity of the derivative at 15%, on the right that at 10%), see FIG. 4.
By comparing the data of EC50 with SN38 in dimethylsulfoxide (DMSO) the following results are obtained: […]

[3] = system: DHD/K12 cells (MDR colon-rectum adenocarcinoma model); experiment: Cytotoxicity test in DHD/K12 cells, LIVE/DEAD Cell Vitality Assay; assay type: cell-based, rat; details: 0.25 μM, 48 hours of treatment
Description: The cellular line used derives from rats of the BDIX strain treated with 1,2-dimethylhydrazine.
In order to evaluate the degree of cellular vitality the LIVE/DEAD Cell Vitality Assay (Molecular Probes) was used, which allows metabolically active cells to be distinguished from dead cells: the latter emit green fluorescence at a nuclear level whereas live cells emit red fluorescence localized on the cellular membrane and in the cytoplasm. After colouring, the cells were analyzed using a confocal microscope and the percentage of live/dead cells was evaluated by counting a minimum of 500 live or dead cells per sample.

| SMILES | antitumoral activity relative to commercial prodrug (Irinotecan) [1] [times] | EC50 [2] [nM] | cytotoxic effect at low concentration [3] |
| --- | --- | --- | --- |
| CCc1c2c(nc3ccc(O)cc13)-c1cc3c(c(=O)n1C2)COC(=O)[C@]3(O)CC [SN38 in DMSO, SN38] | 100 to 1000 | 5 |  |
| COc1cccc2c1C(=O)c1c(O)c3c(c(O)c1C2=O)C[C@@](O)(C(=O)CO)C[C@@H]3O[C@H]1C[C@H](N)[C@H](O)[C@H](C)O1 [doxorubicin] |  |  | does not have any cytotoxic effect |
